Counter-ions that a name gives are not always drawn.

Assay [1] concerns the target T1, delta opioid receptor (Mus musculus, UniProt P32300). Briefly: radioligand binding assay, delta receptor ([3H]-DADLE, mouse brain membranes). The note with it: [3H]-DADLE 1.3 nM in presence of 40 nM DAMGO, read-out: Ki δ. On the procedure:
(§1) The activity of the compounds of the present invention as selective delta ligands is determined in radioligand binding assays as described below.
(§2) Mouse brain membranes were prepared as described by Kosterlitz (Br. J. Pharmacol., 1981, 73, 939.). The binding of the preferential delta ligand [^3 H]-[D-Ala^2, D-Leu^5 ]-enkephalin (DADLE) was evaluated at its KD concentration (1.3 nM) in presence of 40 nM of the unlabelled mu ligand [D-Ala^2, MePhe^4, Gly-ol^5 ]-enkephalin (DAMGO). The binding of the mu ligand [^3 H]-DAMGO (Eur. J. Pharmacol., 1989, 166, 213) and of the kappa ligand [^3 H]-U69593 (Excerpta Medica, 1990, 211) were carried out at 0.5 nM. The non-specific binding was determined in presence of naloxone (10 μM) for all tritiated ligands. Binding data were expressed as percentage of inhibition and fitted the following equation: f(x)=100·X/(IC50 +X) where X are cold drug concentration values. The IC50 obtained were used to calculate the inhibitory constants (Ki) accordingly to the Cheng and Prusoff relation (Biochenl. Pharmaco., 1973, 22, 3099).

The target in assay [2] is T1, delta opioid receptor. Briefly: mouse vas deferens (MVD) bioassay, delta agonist/antagonist activity. Set-up: Vasa deferentia were obtained from CD-1 mice; from tissue; host or cells: vas deferens of CD-1 mice. As for the experimental part: The delta agonist/antagonist activity of the compounds of the present invention is determined in the mouse vas deferens (MVD) bioassay as described below.
Vasa deferentia were obtained from CD-1 mice and were suspended in a Mg^2+ -free Krebs buffer at 37° C. The tissues were electrically stimulated with pulse trans having the following parameters: train duration 50 ms, stimulus duration 2 ms, frequency of stimuli 50 Hz, maximal voltage 60-70 V, train frequency 0.1 Hz. Concentration response curves for each compounds were constructed cumulatively. Linear regression analysis and IC50 concentrations were evaluated according to Tallarida and Murray (Manual of Pharmacological Calculations, Springer Verlag N.Y., 1981).

Another assay has as its target T2, kappa opioid receptor (Mus musculus, UniProt P33534).
T2 construct: Mouse brain membranes were prepared as described by Kosterlitz; from tissue; host or cells: mouse brain membranes
Briefly: radioligand binding assay, kappa receptor ([3H]-U69593, mouse brain membranes). The note with it: selectivity ratio kappa over delta. As for the experimental part:
as §1, §2

For another assay, the target named is T3, mu opioid receptor (Mus musculus, UniProt P42866).
T3 construct: Mouse brain membranes were prepared as described by Kosterlitz; from tissue; host or cells: mouse brain membranes
Briefly: radioligand binding assay, mu receptor ([3H]-DAMGO, mouse brain membranes). To be noted: selectivity ratio mu over delta. On the procedure: as §1, §2

T1 sequence (P32300 whole entry): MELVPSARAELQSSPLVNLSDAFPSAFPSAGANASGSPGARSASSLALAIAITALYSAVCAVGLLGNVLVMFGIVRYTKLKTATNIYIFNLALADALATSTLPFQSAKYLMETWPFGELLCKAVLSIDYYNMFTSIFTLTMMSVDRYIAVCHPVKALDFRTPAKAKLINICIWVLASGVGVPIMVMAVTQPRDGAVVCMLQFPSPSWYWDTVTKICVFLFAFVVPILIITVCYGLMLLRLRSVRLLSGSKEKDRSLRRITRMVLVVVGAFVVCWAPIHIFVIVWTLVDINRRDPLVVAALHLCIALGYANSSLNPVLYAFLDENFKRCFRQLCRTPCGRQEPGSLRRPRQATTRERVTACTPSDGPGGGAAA
T2 sequence (P33534 whole entry): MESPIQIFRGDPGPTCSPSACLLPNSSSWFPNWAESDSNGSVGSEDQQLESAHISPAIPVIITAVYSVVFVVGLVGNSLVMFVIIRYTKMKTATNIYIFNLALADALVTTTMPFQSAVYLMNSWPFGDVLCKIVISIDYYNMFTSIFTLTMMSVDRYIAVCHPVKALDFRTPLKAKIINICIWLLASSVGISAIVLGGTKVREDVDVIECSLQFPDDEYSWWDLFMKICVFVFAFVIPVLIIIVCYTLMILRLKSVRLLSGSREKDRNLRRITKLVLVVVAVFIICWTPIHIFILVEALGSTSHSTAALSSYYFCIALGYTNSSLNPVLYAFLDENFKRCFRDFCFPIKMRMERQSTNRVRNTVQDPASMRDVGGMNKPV
T3 sequence (P42866 whole entry): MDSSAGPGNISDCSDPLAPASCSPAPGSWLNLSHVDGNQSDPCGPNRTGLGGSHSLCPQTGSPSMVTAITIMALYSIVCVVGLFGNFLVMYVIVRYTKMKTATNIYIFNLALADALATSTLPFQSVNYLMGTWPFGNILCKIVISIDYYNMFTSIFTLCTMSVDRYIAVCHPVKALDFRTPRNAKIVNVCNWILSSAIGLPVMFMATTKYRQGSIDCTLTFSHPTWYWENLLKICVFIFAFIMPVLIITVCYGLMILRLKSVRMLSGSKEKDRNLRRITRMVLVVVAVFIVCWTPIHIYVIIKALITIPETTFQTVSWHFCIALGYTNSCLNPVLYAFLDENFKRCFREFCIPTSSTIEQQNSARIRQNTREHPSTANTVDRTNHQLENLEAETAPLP

Take `CCN(CC)C(=O)c1ccc(N(c2cccc(O)c2)C(C)CN2CCCC2)cc1` (racemic) [Example 5, (±)-N,N-diethyl-4-[[N-(3-hydroxyphenyl)-N-(3-pyrrolidinoprop-2-yl)]amino]benzamide citrate]: the Ki at delta opioid receptor [1] was determined as 3.9 nM. Also, at delta opioid receptor [2] (30 nM of NTI (naltrindole)), the “shift of the dose-response curve caused by NTI” value turned out to be 10 fold. On delta opioid receptor [2] (electrically stimulated CD-1 mouse vas deferens, 37° C., delta agonists), the IC50 was determined as 7 nM.
As to `CCN(CC)C(=O)c1ccc(N(c2cccc(O)c2)C(C)CN(C)C)cc1` (racemic) [Example 9, (±)-N,N-diethyl-4-[[N-(3-dimethylaminoprop-2-yl)-N-(3-hydroxyphenyl)]amino]benzamide oxalate], the Ki on delta opioid receptor [1] turned out to be 3.9 nM. The “Ki κ/Ki δ” value on kappa opioid receptor is listed as 153. Also, the “Ki μ/Ki δ” value on mu opioid receptor was determined as 148.

The term Ki denotes a measure of affinity in units of concentration, obtained from inhibition or displacement. As usually defined, the IC50 is the concentration needed to halve the response being measured. Lower therefore signals inhibition by little substance.

The values are drawn from patent publication US5922887A, “Diaryldiamine derivatives and their use as delta opiod (ANT)-agonists” (SmithKline Beecham SpA, priority 1995, dated 1999).
